Measurements: patent publication US20220378681A1, “SKIN CARE FORMULATION WITH LIPOPHILIC PEPTIDES” (DECIEM BEAUTY GROUP INC., priority 2019, published 2022)

Assay: Solubility of SYM3D in oils
Type: physicochemical
Procedure: Phase B may be prepared by adding MCT oil into a mixing vessel, and incorporating further ingredients such as one or more oil-soluble active ingredients. The ingredients are mixed at room temperature at a speed of 3000 RPM, with side sweep scraping at 15 RPM. Samples should be taken via the valve at the bottom of the kettle and tested by centrifugation, and the solution also visibly inspected to ensure complete incorporation of the second ingredient. Centrifugation of a sample of the mixture is an optional step to ensure complete dissolution of the second ingredient.
Amounts of SYM3D that would be effective in the invented formulation range from 0.1 to 1% by weight of the overall formulation. The specific amount used by the inventors in a sample formulation was 0.5%. SYM3D is selectively soluble in certain oils. […] It is therefore important to include an oil component such as MCT oil which is compatible with SYM3D if it is being used.

solubility in MCT oil (MCT oil, room temperature, 3000 RPM mixing): can be solubilized
solubility in squalane (squalane): not soluble
SMILES: CCCc1cc(OC)c2c(c1)C(C)C(c1ccc(O)c(OC)c1)O2 (centres unmarked) [SYM3D, dihydrodehydrodiisoeugenol]
